The test system of this experiment is auto-antibodies bound to the affinity chromatographic column. The experiment can be described thus: Eluted auto-antibodies tested for preferential binding to peptide 1 or peptide 2 bound to a solid phase. More on the design: species or system human. On the procedure: After elution from the affinity matrix, the auto-antibodies bound to the affinity chromatographic column were tested for preferential binding to peptide 1 or peptide 2 by means of peptide 1 and peptide 2 bound to a solid phase. Auto-antibody type 1 prefers the binding of peptide 1, and auto-antibody type 2 prefers the binding of peptide 2.

Regarding HWWRAESDEARRSYNDPKC [Peptide 2], where the note is “auto-antibodies of person 2, peptides bound to a solid phase”, the “preferential binding of auto-antibodies to peptide 1 or peptide 2” value is on record as “preferably bind”. In the case of TGSFFCELWTSGKK [Peptide 1], the “preferential binding of auto-antibodies to peptide 1 or peptide 2” value (auto-antibodies of person 1, peptides bound to a solid phase) is reported as “preferably bind”.

(Values after US6994970B1, “Peptides for combating the autoantibodies that are responsible for dilatative cardiomyopathy (DCM)” (Fresenius Medical Care Affina GmbH, priority 1999, dated 2006).)
